Starred links: 1 amine or outer side, 2 acyl side, 3 side chain; linkers in the order of their positions; H or OH if unused. Positions of bridges follow the written chain, without caps; N, C: chain ends. Non-standard residues stand in square brackets, D forms with d. Residues, ends and D or L forms follow the SMILES beside them. Chains are numbered I, II in the order given. *: point of attachment. d(isoGln) = NC(=O)[C@@H](CCC(=O)[*:2])N[*:1]; isoGln = NC(=O)[C@H](CCC(=O)[*:2])N[*:1]; X1 = N[C@@H](CCC(=O)[*:2])C(=O)[*:1]; εLys = N[C@@H](CCCCN[*:1])C(=O)[*:2]; X4 = N[C@H](CCC(=O)[*:2])C(=O)[*:1]; Aad = N[C@@H](CCCC(=O)O)C(=O)O; Heptanoyl = CCCCCCC(=O)*; Dab = NCC[C@H](N)C(=O)O; PhAc = O=C(Cc1ccccc1)*
Target: T1, human V1aR (Homo sapiens, UniProt P37288)
T1 construct: expressed in transfected cells
Assay: Agonist activity at vasopressin V1a receptors, cell-based FLIPR calcium assay
Conditions: for Emax: read-out: Efficacy Avg. (%)
Procedure, shortened: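 HEK Flp-In cells stably expressing human V1aR were loaded with Calcium 4 dye plus 2.5 mM probenecid for 1 h at 37 °C, then given half-log compound concentrations (final 0.1% DMSO) on FLIPR Tetra.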

T1 sequence (P37288 whole entry): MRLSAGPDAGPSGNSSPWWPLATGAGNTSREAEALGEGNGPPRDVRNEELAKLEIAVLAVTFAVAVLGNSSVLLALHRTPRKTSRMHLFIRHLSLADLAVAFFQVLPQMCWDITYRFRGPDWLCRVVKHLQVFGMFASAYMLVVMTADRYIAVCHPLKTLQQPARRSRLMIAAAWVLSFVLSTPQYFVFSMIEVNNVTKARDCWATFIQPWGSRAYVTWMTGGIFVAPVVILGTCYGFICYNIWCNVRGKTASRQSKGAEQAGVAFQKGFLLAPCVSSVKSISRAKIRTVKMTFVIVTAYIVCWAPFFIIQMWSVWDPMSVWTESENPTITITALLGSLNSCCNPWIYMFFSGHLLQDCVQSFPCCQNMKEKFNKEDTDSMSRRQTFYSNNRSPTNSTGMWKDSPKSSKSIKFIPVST

## CC[C@H](C)[C@@H]1NC(=O)[C@H](Cc2ccccc2)NC(=O)[C@@H](N)CSSC[C@@H](C(=O)N2CCC[C@H]2C(=O)N[C@@H](CCCNCCCCCNC(=O)CC[C@H](NC(=O)[C@H](CCCNC(=N)N)NC(=O)[C@@H]2CCCN2C(=O)[C@H](CO)NC(=O)[C@H](CC(N)=O)NC(=O)[C@H](CCC(N)=O)NC(=O)[C@H](Cc2ccccc2)NC(=O)[C@@H](Cc2ccc(OC)cc2)NC(=O)Cc2ccccc2)C(N)=O)C(=O)NCC(N)=O)NC(=O)[C@H](CC(N)=O)NC(=O)[C@H](CCC(N)=O)NC1=O [Compound 11]
  EC50: 2.2 nM
  Emax: 51%

## CC[C@H](C)[C@@H]1NC(=O)[C@H](Cc2ccccc2)NC(=O)[C@@H](N)CSSC[C@@H](C(=O)N2CCC[C@H]2C(=O)N[C@@H](CCCNCCCCCC(=O)NCCCC[C@H](NC(=O)[C@H](CCCNC(=N)N)NC(=O)[C@@H]2CCCN2C(=O)[C@H](C)NC(=O)[C@H](CC(N)=O)NC(=O)[C@H](CCC(N)=O)NC(=O)[C@H](Cc2ccccc2)NC(=O)[C@@H](Cc2ccc(OC)cc2)NC(=O)Cc2ccccc2)C(N)=O)C(=O)NCC(N)=O)NC(=O)[C@H](CC(N)=O)NC(=O)[C@H](CCC(N)=O)NC1=O [Compound 8]
  EC50: > 10000 nM
  Emax: 50%

## CC[C@H](C)[C@@H]1NC(=O)[C@H](Cc2ccccc2)NC(=O)[C@@H](N)CSSC[C@@H](C(=O)N2CCC[C@H]2C(=O)N[C@@H](CCCNCCCCCNC(=O)CC[C@H](NC(=O)[C@H](CCCNC(=N)N)NC(=O)[C@@H]2CCCN2C(=O)[C@H](CCCNC(N)=O)NC(=O)[C@H](CC(N)=O)NC(=O)[C@H](CCC(N)=O)NC(=O)[C@H](Cc2ccccc2)NC(=O)[C@@H](Cc2ccc(OC)cc2)NC(=O)Cc2ccccc2)C(N)=O)C(=O)NCC(N)=O)NC(=O)[C@H](CC(N)=O)NC(=O)[C@H](CCC(N)=O)NC1=O [Compound 15]
  EC50: 2.3 nM
  Emax: 44%

## CC[C@H](C)[C@@H]1NC(=O)[C@H](Cc2ccccc2)NC(=O)[C@@H](N)CSSC[C@@H](C(=O)N2CCC[C@H]2C(=O)N[C@@H](CCCNCCCC(=O)NCCCC[C@H](NC(=O)[C@H](CCCNC(=N)N)NC(=O)[C@@H]2CCCN2C(=O)[C@H](CCCNC(=N)N)NC(=O)[C@H](CC(N)=O)NC(=O)[C@H](CCC(N)=O)NC(=O)[C@H](Cc2ccccc2)NC(=O)[C@@H](Cc2ccc(OC)cc2)NC(=O)Cc2ccccc2)C(N)=O)C(=O)NCC(N)=O)NC(=O)[C@H](CC(N)=O)NC(=O)[C@H](CCC(N)=O)NC1=O [Compound 7]
  EC50: > 10000 nM
  Emax: 24%

## CC[C@H](C)[C@@H]1NC(=O)[C@H](Cc2ccccc2)NC(=O)[C@@H](N)CSSC[C@@H](C(=O)N2CCC[C@H]2C(=O)N[C@@H](CCNC(=O)[C@@H](N)CCCCNC(=O)[C@H](CCCCN)NC(=O)CC[C@H](NC(=O)[C@H](CCCNC(=N)N)NC(=O)[C@@H]2CCCN2C(=O)[C@H](C)NC(=O)[C@H](CC(N)=O)NC(=O)[C@H](CCC(N)=O)NC(=O)[C@H](Cc2ccccc2)NC(=O)[C@@H](Cc2ccc(OC)cc2)NC(=O)Cc2ccccc2)C(N)=O)C(=O)NCC(N)=O)NC(=O)[C@H](CC(N)=O)NC(=O)[C@H](CCC(N)=O)NC1=O [Compound 41] (I: H-CFIQNCP[Dab]G-NH2 / II: PhAc-[dY](Me)FQNAPR[isoGln]K[εLys]; disulfide I:1-I:6; amide I:8-II:C)
  EC50: 1.2 nM
  Emax: 37%

## CC[C@H](C)[C@@H]1NC(=O)[C@H](Cc2ccccc2)NC(=O)[C@@H](N)CSSC[C@@H](C(=O)N2CCC[C@H]2C(=O)N[C@@H](CCCNCCCCCNC(=O)CC[C@H](NC(=O)[C@H](CCCNC(=N)N)NC(=O)[C@@H]2CCCN2C(=O)[C@H](CCN)NC(=O)[C@H](CC(N)=O)NC(=O)[C@H](CCC(N)=O)NC(=O)[C@H](Cc2ccccc2)NC(=O)[C@@H](Cc2ccc(OC)cc2)NC(=O)Cc2ccccc2)C(N)=O)C(=O)NCC(N)=O)NC(=O)[C@H](CC(N)=O)NC(=O)[C@H](CCC(N)=O)NC1=O [Compound 16]
  EC50: 2.4 nM
  Emax: 46%

## CC[C@H](C)[C@@H]1NC(=O)[C@H](Cc2ccccc2)NC(=O)[C@@H](N)CSSC[C@@H](C(=O)N2CCC[C@H]2C(=O)N[C@@H](CCNC(=O)[C@@H](N)CCCCNC(=O)CC[C@@H](NC(=O)[C@H](CCCNC(=N)N)NC(=O)[C@@H]2CCCN2C(=O)[C@H](C)NC(=O)[C@H](CC(N)=O)NC(=O)[C@H](CCC(N)=O)NC(=O)[C@H](Cc2ccccc2)NC(=O)[C@@H](Cc2ccc(OC)cc2)NC(=O)Cc2ccccc2)C(N)=O)C(=O)NCC(N)=O)NC(=O)[C@H](CC(N)=O)NC(=O)[C@H](CCC(N)=O)NC1=O [Compound 54] (I: H-CFIQNCP[Dab]G-NH2 / II: PhAc-[dY](Me)FQNAPR[d(isoGln)][εLys]; disulfide I:1-I:6; amide I:8-II:C)
  EC50: 1.4 nM
  Emax: 51%

## CC[C@H](C)[C@@H]1NC(=O)[C@H](Cc2ccccc2)NC(=O)[C@@H](N)CSSC[C@@H](C(=O)N2CCC[C@H]2C(=O)N[C@@H](CCCNCCCCCCNC(=O)CC[C@H](NC(=O)[C@H](CCCNC(=N)N)NC(=O)[C@@H]2CCCN2C(=O)[C@H](C)NC(=O)[C@H](CC(N)=O)NC(=O)[C@H](CCC(N)=O)NC(=O)[C@H](Cc2ccccc2)NC(=O)[C@@H](Cc2ccc(OC)cc2)NC(=O)Cc2ccccc2)C(N)=O)C(=O)NCC(N)=O)NC(=O)[C@H](CC(N)=O)NC(=O)[C@H](CCC(N)=O)NC1=O [Compound 4]
  EC50: 1.5 nM
  Emax: 24%

## CCCCCCC(=O)NCCCC[C@H](NC(=O)CC[C@H](NC(=O)[C@H](CCCNC(=N)N)NC(=O)[C@@H]1CCCN1C(=O)[C@H](C)NC(=O)[C@H](CC(N)=O)NC(=O)[C@H](CCC(N)=O)NC(=O)[C@H](Cc1ccccc1)NC(=O)[C@@H](Cc1ccc(OC)cc1)NC(=O)Cc1ccccc1)C(N)=O)C(=O)NCCCC[C@H](N)C(=O)NCC[C@H](NC(=O)[C@@H]1CCCN1C(=O)[C@@H]1CSSC[C@H](N)C(=O)N[C@@H](Cc2ccccc2)C(=O)N[C@@H]([C@@H](C)CC)C(=O)N[C@@H](CCC(N)=O)C(=O)N[C@@H](CC(N)=O)C(=O)N1)C(=O)NCC(N)=O [Compound 43] (I: H-CFIQNCP[Dab]G-NH2 / II: PhAc-[dY](Me)FQNAPR[isoGln]K(Heptanoyl)[εLys]; disulfide I:1-I:6; amide I:8-II:C)
  EC50: 1.4 nM
  Emax: 59%

## CC[C@H](C)[C@@H]1NC(=O)[C@H](Cc2ccccc2)NC(=O)[C@@H](N)CSSC[C@@H](C(=O)N2CCC[C@H]2C(=O)N[C@@H](CCNC(=O)[C@@H](N)CCC(=O)NCCCC[C@H](NC(=O)[C@H](CCCNC(=N)N)NC(=O)[C@@H]2CCCN2C(=O)[C@H](C)NC(=O)[C@H](CC(N)=O)NC(=O)[C@H](CCC(N)=O)NC(=O)[C@H](Cc2ccccc2)NC(=O)[C@@H](Cc2ccc(OC)cc2)NC(=O)Cc2ccccc2)C(N)=O)C(=O)NCC(N)=O)NC(=O)[C@H](CC(N)=O)NC(=O)[C@H](CCCC(N)=O)NC1=O [Compound 64] (I: H-CFI[Aad](NH2)NCP[Dab]G-NH2 / II: PhAc-[dY](Me)FQNAPRK-NH2; disulfide I:1-I:6; linker I:8-II:8 via X1)
  EC50: 2.9 nM
  Emax: 42%

## CC[C@H](C)[C@@H]1NC(=O)[C@H](Cc2ccccc2)NC(=O)[C@@H](N)CSSC[C@@H](C(=O)N2CCC[C@H]2C(=O)N[C@@H](CCCNCCCCCNC(=O)CC[C@H](NC(=O)[C@H](CCCNC(=N)N)NC(=O)[C@@H]2CCCN2C(=O)[C@H](CCCCN)NC(=O)[C@H](CC(N)=O)NC(=O)[C@H](CCC(N)=O)NC(=O)[C@H](Cc2ccccc2)NC(=O)[C@@H](Cc2ccc(OC)cc2)NC(=O)Cc2ccccc2)C(N)=O)C(=O)NCC(N)=O)NC(=O)[C@H](CC(N)=O)NC(=O)[C@H](CCC(N)=O)NC1=O [Compound 12]
  EC50: 2.3 nM
  Emax: 39%

## CC[C@H](C)[C@@H]1NC(=O)[C@H](Cc2ccccc2)NC(=O)[C@@H](N)CSSC[C@@H](C(=O)N2CCC[C@H]2C(=O)N[C@@H](CCNC(=O)[C@@H](N)CCCCNC(=O)CC[C@H](NC(=O)[C@H](CCCNC(=N)N)NC(=O)[C@@H]2CCCN2C(=O)[C@H](CCCNC(=N)N)NC(=O)[C@H](CC(N)=O)NC(=O)[C@H](CCC(N)=O)NC(=O)[C@@H](NC(=O)[C@@H](Cc2ccc(OC)cc2)NC(=O)Cc2ccccc2)[C@@H](C)CC)C(N)=O)C(=O)NCC(N)=O)NC(=O)[C@H](CC(N)=O)NC(=O)[C@H](CCC(N)=O)NC1=O [Compound 36] (I: H-CFIQNCP[Dab]G-NH2 / II: PhAc-[dY](Me)IQNRPR[isoGln][εLys]; disulfide I:1-I:6; amide I:8-II:C)
  EC50: 1.2 nM
  Emax: 46%

## CC[C@H](C)[C@@H]1NC(=O)[C@H](Cc2ccccc2)NC(=O)[C@@H](N)CSSC[C@@H](C(=O)N2CCC[C@H]2C(=O)N[C@@H](CCCNCCCCCNC(=O)CC[C@H](NC(=O)[C@H](CCCNC(=N)N)NC(=O)[C@@H]2CCCN2C(=O)[C@H](CCCNC(N)=O)NC(=O)[C@H](CC(N)=O)NC(=O)[C@H](CCC(N)=O)NC(=O)[C@H](Cc2ccc(Cl)cc2)NC(=O)[C@@H](Cc2ccc(OC)cc2)NC(=O)Cc2ccccc2)C(N)=O)C(=O)NCC(N)=O)NC(=O)[C@H](CC(N)=O)NC(=O)[C@H](CCC(N)=O)NC1=O [Compound 45]
  EC50: 0.8 nM
  Emax: 72%

## CC[C@H](C)[C@@H]1NC(=O)[C@H](Cc2ccccc2)NC(=O)[C@@H](N)CSSC[C@@H](C(=O)N2CCC[C@H]2C(=O)N[C@@H](CCCNCCCCCNC(=O)CCNC(=O)CC[C@H](NC(=O)[C@H](CCCNC(=N)N)NC(=O)[C@@H]2CCCN2C(=O)[C@H](C)NC(=O)[C@H](CC(N)=O)NC(=O)[C@H](CCC(N)=O)NC(=O)[C@H](Cc2ccccc2)NC(=O)[C@@H](Cc2ccc(OC)cc2)NC(=O)Cc2ccccc2)C(N)=O)C(=O)NCC(N)=O)NC(=O)[C@H](CC(N)=O)NC(=O)[C@H](CCC(N)=O)NC1=O [Compound 20]
  EC50: 2.7 nM
  Emax: 42%

## CC[C@H](C)[C@@H]1NC(=O)[C@H](Cc2ccccc2)NC(=O)[C@@H](N)CSSC[C@@H](C(=O)N2CCC[C@H]2C(=O)N[C@@H](CCNC(=O)[C@H](N)CCC(=O)NCCCC[C@H](NC(=O)[C@H](CCCNC(=N)N)NC(=O)[C@@H]2CCCN2C(=O)[C@H](C)NC(=O)[C@H](CC(N)=O)NC(=O)[C@H](CCC(N)=O)NC(=O)[C@H](Cc2ccccc2)NC(=O)[C@@H](Cc2ccc(OC)cc2)NC(=O)Cc2ccccc2)C(N)=O)C(=O)NCC(N)=O)NC(=O)[C@H](CC(N)=O)NC(=O)[C@H](CC(N)=O)NC1=O [Compound 66] (I: H-CFINNCP[Dab]G-NH2 / II: PhAc-[dY](Me)FQNAPRK-NH2; disulfide I:1-I:6; linker I:8-II:8 via X4)
  EC50: 2.3 nM
  Emax: 30%
